Where a SMILES comes first, the peptide text is derived from it. [ ]: non-standard residue; d: D form. Abu = CC[C@H](N)C(=O)O

The first assay has as its target T1, Interleukin-8 receptors, CXCR1/CXCR2 (Homo sapiens, UniProt P25025+P25024).
T1 sequence (P25025 whole entry): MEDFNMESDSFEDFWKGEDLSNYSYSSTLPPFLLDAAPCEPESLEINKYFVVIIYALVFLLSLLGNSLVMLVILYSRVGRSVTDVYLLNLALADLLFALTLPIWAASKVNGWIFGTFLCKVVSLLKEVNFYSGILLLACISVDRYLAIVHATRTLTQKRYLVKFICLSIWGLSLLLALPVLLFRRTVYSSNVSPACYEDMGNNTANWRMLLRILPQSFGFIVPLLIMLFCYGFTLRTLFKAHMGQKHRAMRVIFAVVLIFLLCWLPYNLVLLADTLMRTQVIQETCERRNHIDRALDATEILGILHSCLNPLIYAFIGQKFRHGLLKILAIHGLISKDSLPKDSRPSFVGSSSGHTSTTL
T1 sequence (P25024 whole entry): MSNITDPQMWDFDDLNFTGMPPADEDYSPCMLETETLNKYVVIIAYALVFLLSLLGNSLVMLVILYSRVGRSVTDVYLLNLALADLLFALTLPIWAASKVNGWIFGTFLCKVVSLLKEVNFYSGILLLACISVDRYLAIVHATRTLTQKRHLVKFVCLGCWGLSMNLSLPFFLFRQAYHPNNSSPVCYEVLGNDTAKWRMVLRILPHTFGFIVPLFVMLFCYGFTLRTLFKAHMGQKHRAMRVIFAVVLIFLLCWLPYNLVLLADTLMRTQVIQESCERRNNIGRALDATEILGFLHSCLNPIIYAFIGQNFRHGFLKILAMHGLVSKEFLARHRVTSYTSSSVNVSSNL
Put plainly: Inhibitory activity against interleukin-8 receptor using [125I]IL8. It is filed as protein assay.
Consider `CC[C@H](NC(=O)[C@H](CC(C)C)NC(=O)[C@H](Cc1ccccc1)NC(=O)[C@@H](NC(=O)CNC(=O)[C@H](Cc1ccccc1)NC(=O)[C@@H](NC(=O)[C@H](Cc1c[nH]c2ccccc12)NC(=O)CNC(=O)[C@H](CC(N)=O)NC(=O)[C@@H](NC(C)=O)C(C)C)[C@@H](C)CC)[C@@H](C)O)C(=O)N[C@@H](CCCCN)C(=O)N[C@H](C(N)=O)C(C)C` (Ac-VNGWIFGTFL[Abu]KV-NH2), for which the inhibitory constant (Ki) (usually the dissociation constant of the complex between target and ligand, obtained from inhibition or displacement) was > 30 µM.

Take `CC[C@H](NC(=O)[C@@H](NC(C)=O)C(C)C)C(=O)N[C@@H](Cc1ccc(O)cc1)C(=O)N[C@@H](CCC(=O)O)C(=O)N[C@H](C(=O)N[C@@H](CC(C)C)C(=O)NCC(=O)N[C@@H](CC(N)=O)C(=O)N[C@@H](CC(=O)O)C(=O)N[C@H](C(=O)N[C@@H](C)C(=O)N[C@@H](CCCCN)C(=O)N[C@@H](Cc1c[nH]c2ccccc12)C(=O)N[C@@H](CCCN=C(N)N)C(=O)N[C@@H](CCSC)C(=O)N[C@H](C(=O)N[C@@H](CC(C)C)C(=O)N[C@@H](CCCN=C(N)N)C(=O)N[C@H](C(N)=O)[C@@H](C)CC)C(C)C)[C@@H](C)O)C(C)C` (Ac-V[Abu]YEVLGNDTAKWRMVLRI-NH2): the Ki is > 1 µM.

In turn, Ac-NFTGMPPADEDYSP-NH2 came in with a Ki of 2700 µM.

With Ac-MSNITDPQMWDFDDLNFTG-NH2, the Ki is > 30 µM.

Ac-MWDFDDLNFTGMPPADEDYSP-NH2: the Ki stood at 13 µM.

As to Ac-WDFDDLNFTGMPPADEDYSP-NH2, the Ki came to 27 µM.

Ac-MWDFDALNFTGMPPADEDYSP-NH2 showed a Ki of 62 µM.

As to Ac-MWAFDDLNFTGMPPADEDYSP-NH2, the inhibitory constant (Ki) was 28 µM.

For the molecule Ac-MWDFADLNFTGMPPADEDYSP-NH2, the Ki was found to be 32 µM.

Molecule Ac-MWDFDDANFTGMPPADEDYSP-NH2 came in with a Ki of 61 µM.

Ac-MWDFDDLNFTGAPPADEDYSP-NH2 yielded a Ki of 14 µM.

Molecule Ac-MWDFDDLNFTGMPPAAEDYSP-NH2 registered a Ki of 55 µM.

The molecule Ac-TGMPPADEDYSP-NH2 had a Ki of 2050 µM.

With Ac-FTGMPPADEDYSP-NH2, the Ki amounted to 1850 µM.

With Ac-MWDADDLNFTGMPPADEDYSP-NH2, the inhibition constant Ki stood at 49 µM.

For `CSCC[C@H](NC(C)=O)C(=O)N1CCC[C@H]1C(=O)N1CCC[C@H]1C(=O)N[C@@H](C)C(=O)N[C@@H](CC(=O)O)C(=O)N[C@@H](CCC(=O)O)C(=O)N[C@@H](CC(=O)O)C(=O)N[C@@H](Cc1ccc(O)cc1)C(=O)N[C@@H](CO)C(=O)N1CCC[C@H]1C(N)=O` (stereo in doubt; form 2), the Ki is 1700 µM.

Molecule Ac-FRQAYHPNNSSP-NH2 showed a Ki of 10 µM.

For Ac-MADFDDLNFTGMPPADEDYSP-NH2, the Ki stood at 55 µM. This Ki is about 5.5-fold higher than that of the molecule before.

The molecule `CSCC[C@H](NC(C)=O)C(=O)N1CCC[C@H]1C(=O)N1CCC[C@H]1C(=O)N[C@@H](C)C(=O)N[C@@H](CC(=O)O)C(=O)N[C@@H](CCC(=O)O)C(=O)N[C@@H](CC(=O)O)C(=O)N[C@@H](Cc1ccc(O)cc1)C(=O)N[C@@H](CO)C(=O)N1CCC[C@H]1C(N)=O` (stereo in doubt; form 1) came in with a Ki of 1.7 µM. Compared with the last molecule, the Ki is about 32-fold lower.

For the molecule Ac-ADTLMRTQVIQETAERRNNIGRALDATEI-NH2, the Ki was > 1 µM.

Molecule Ac-FDDLNFTGMPPADEDYSP-NH2 registered a Ki of 120 µM.

Ac-DDLNFTGMPPADEDYSP-NH2: the Ki was found to be 190 µM. This Ki is about 1.6-fold higher than that of the molecule before.

Consider Ac-AWDFDDLNFTGMPPADEDYSP-NH2, for which the Ki was found to be 23 µM. Compared with the last molecule, the Ki is about 8.3-fold lower.

Take Ac-DFDDLNFTGMPPADEDYSP-NH2: the Ki came to 68 µM.

Ac-GMPPADEDYSP-NH2 came in with a Ki of 890 µM.

With Ac-MWDFDDLNFTGMPPADEDYAP-NH2, the Ki turned out to be 15 µM.

The molecule Ac-LNFTGMPPADEDYSP-NH2 returned an inhibition constant Ki of 3100 µM.

Ac-MWDFDDLNFTGMPPADEDYSA-NH2: the Ki stood at 155 µM.

Ac-MWDFDDLNATGMPPADEDYSP-NH2 yielded a Ki of 107 µM. The Ki values of the last two molecules are within 1.5-fold of each other.

The molecule Ac-DLNFTGMPPADEDYSP-NH2 registered a Ki of 750 µM.

On to Ac-MWDFDDLNFTGMPPADADYSP-NH2, for which the Ki turned out to be 29 µM.

Turning to Ac-MWDFDDLAFTGMPPADEDYSP-NH2, the Ki was found to be 42 µM.

Regarding Ac-MWDFDDLNFTGMPAADEDYSP-NH2, the Ki amounted to 27 µM.

Ac-MWDFDDLNFTGMPPADEAYSP-NH2 returned a Ki of 42 µM.

With `CC[C@H](NC(=O)[C@@H]1CCCN1C(=O)[C@H](CO)NC(=O)[C@H](Cc1ccc(O)cc1)NC(=O)[C@H](CC(=O)O)NC(=O)[C@H](CCC(=O)O)NC(=O)[C@H](CC(=O)O)NC(=O)[C@H](C)NC(=O)[C@@H]1CCCN1C(=O)[C@@H]1CCCN1C(=O)[C@H](CCSC)NC(C)=O)C(=O)N[C@@H](CCSC)C(=O)N[C@@H](CC(C)C)C(=O)N[C@@H](CCC(=O)O)C(=O)N[C@H](C(=O)N[C@@H](CCC(=O)O)C(=O)N[C@H](C(=O)N[C@@H](CC(C)C)C(=O)N[C@@H](CC(N)=O)C(=O)N[C@@H](CCCCN)C(=O)N[C@@H](Cc1ccc(O)cc1)C(N)=O)[C@@H](C)O)[C@@H](C)O` (Ac-MPPADEDYSP[Abu]MLETETLNKY-NH2), the Ki came to 0.3 µM.

In turn, Ac-MWDFDDLNFAGMPPADEDYSP-NH2 displayed a Ki of 5 µM.

As for Ac-MWDFDDLNFTGMAPADEDYSP-NH2, the Ki is 400 µM. Compared with the last molecule, the Ki is about 80-fold higher.

Regarding Ac-MWDFDDLNFTGMPPADEDASP-NH2, the Ki came to 265 µM.

In the next assay the target is T1, Interleukin-8 receptors, CXCR1/CXCR2. Nature of the assay: Compound was tested for inhibitory activity against Interleukin-8 receptor. It is filed as protein assay.
For the molecule Ac-MWDFDDLNFTGMPPADEDYSP-NH2, the IC50 (commonly the concentration that inhibits the measured activity by half) stood at 19 µM. This counts as double-digit micromolar.

The values are drawn from ChEMBL document CHEMBL1150989, “Identification and characterisation of an inhibitor of interleukin-8: a receptor based approach” (Bioorg Med Chem Lett, 1996).
